Results as given in US9867798B2, “Ladostigil therapy for immunomodulation” (priority 2012, dated 2018).
Values joined by “and” are separate entries in the source; they are usually repeats but may differ in a detail not shown here. Equal entries are not always repeated.

How the values were obtained:
[1] = test system: Psammomys obesus gerbils on high-energy diet; assay: Diabetes in gerbils on high-energy diet: glucose, insulin, pancreatic islets; type: in vivo; design: Change in glucose: unit: mg/dL
Procedure: Male Psammomys obesus gerbils aged 3.5-4 months were given a high-energy diet consisting of 938.5 g/Kg version of 2018SC+F Harlan Tekled Ltd., USA, supplemented with soybean oil to a final fat concentration of 6%. After one week on the diet, blood was taken for measurement of glucose and ChE activity. Half of the animals were given ladostigil (17 mg/kg/day) by gavage while the remainder received tap water by the same route. Blood was taken from the tail once weekly for measurement of glucose as described in Kalman R., et al, (2001). Lab Anim. 35:346-352. After three weeks of treatment the animals they were deeply anesthetized, blood was taken by cardiac puncture for measurement of ChE activity, glucose and insulin levels and the pancreas removed for section and staining with haematoxylin and eosin and the number of islets counted. Blood glucose of 11 animals had reached values exceeding 200 mg/dL after one week on the high energy diet and the average value for the whole group was 300±27 mg/dL. […] It is noted, that cholinesterase activity in plasma of Psammomys obesus is mostly mediated by butyrylcholinesterase (BuChE) rather than by AChE.

ChE = assay: Cholinesterase inhibition in plasma and spleen of LPS injected mice (Example 5); type: in vivo, Balb-C mice; settings: 120 min after oral administration; for Inhibition of ChE, plasma / Inhibition of ChE, spleen: LPS injected mice
Procedure: (§1) In experiments on the effect of chronic treatment with ladostigil on ChE activity in mice drinking DSS, the spleen was rapidly removed as described above, together with a colon segment of about 0.5 cm in length taken from the proximal area. Spleen and colon segments were washed in cold phosphate buffered saline (PBS) before they were frozen at −80° C. For assay, the tissue was unfrozen and weighed and PBS was added to each tissue at a ratio of 1 mg tissue to 1 ml. Tissues were homogenized at a speed of 24,000 rpm in cold phosphate buffer pH 7 containing 0.1% Triton and centrifuged at 14000 rpm. Aliquots of plasma and the supernatant from the spleen and colon were incubated with acetylthiocholine and dinitro benzoic acid in phosphate buffer pH 7 and the rate of development of the yellow color was measured as described by Ellman et al, (1961). Percent inhibition of ChE activity was calculated by comparison with that of control mice given water by gavage. Protein concentration was determined by means of by Pierce BCA Protein Assay Kit (Thermo Scientific, USA) according to the manufacturer's instructions. It is noted, that ChE activity in the colon and spleen of mice is attributed mainly to that of AChE while that in mouse plasma is mainly attributable to BuChE.
For the LPS experiment involving a single administration, ladostigil (10 or 20 mg/kg) in a volume of 1 ml/100 g or water (1 ml/100 g) were given by gavage to groups of 6-8 Balb-C male mice weighing 24-30 g and LPS as described above. […] Blood was taken into heparinized tubes and centrifuged at 14000 rpm at room temperature for 4 min to provide plasma and the spleen was rapidly removed, weighed, frozen in liquid nitrogen and stored at −80° C. until assayed. It is noted, that ChE inhibition in mouse plasma is mainly attributed to BuChE activity, and in mouse spleen—mainly to AChE activity.
Percent inhibition of ChE activity was calculated by comparison with that of control mice given water by gavage as described in Example 1 above.

[2] = test system: cholinesterase (AChE and BuChE); assay: Cholinesterase activity in spleen and colon of mice drinking DSS (Ellman); type: in vivo; settings: for ChE activity colon / ChE activity spleen: DSS 5%, 8 days
Procedure: (§2) BALB/c OlaHsd male mice aged 8-9 weeks and weighing 25-30 g were purchased from Harlan (Jerusalem, Israel) and housed in standard cages of up to 5 per cage in the pathogen free Animal Facility of the Institute for Drug Research. All experiments were performed in accordance with the Principles of Laboratory Animal Care (NIH publication #85-23, revised 1985) protocols MD-09-12197-4. Acute colitis was induced in mice by administration of 5% DSS solution (M.Wt.=[…], MP Biomedicals, LLC, Solon, Ohio, USA) in water for 8 days. The DSS solution was freshly prepared every day. Mice were provided with food and water or DSS solution ad libitum during the experiment. They were divided into groups of 10 as follows: Vehicle control group: mice drank water and were given water (1 ml/100 gm) once daily by gavage for 8 days; Drug control group: mice drank water and were given ladostigil (10 mg/kg) by gavage once daily for 8 days. DSS untreated group: mice drank 5% DSS for 7 days and water on the 8th day and were given water (1 ml/100 g) once daily by gavage for 8 days. Drug treated group: mice drank 5% DSS followed by water as above and were given ladostigil (5 or 10 mg/kg) by gavage once daily for 8 days. The volume of 5% DSS solution consumed was measured for each group of mice and the average volume/mouse was calculated. On the eighth day, the mice were anesthetized by CO2 and sacrificed by cervical dislocation 2 h after the last dose of ladostigil. Samples of colon and spleen were taken for measurement of cytokines MPO, cytokines and ChE activity.
as §1

[3] = test system: mice with DSS-induced colitis; assay: Acute colitis induced by DSS in mice: body weight, stool, bleeding, DAI, colon length; type: in vivo, BALB/c OlaHsd mice
Procedure: as §2
Body weight, stool consistency and the presence of blood in the stools was recorded daily for each mouse. […] The score ranged between 0-4 for all three parameters and was composed as follows: Weight loss: none=0, 1-5%=1, 5-10%=2, 10-20%=3, >20%=4. Percent of weight loss on days 7 and 8 relative to the first day was calculated for all the groups. […] Bleeding: none=0, hemoccult=2, gross bleeding=4. The maximum DAI score was 4 based on a combination of scores of weight loss (relative to that on the first day of the experiment), stool consistency and bleeding, divided by 3. After sacrifice the length of the colon segment from the cecum to the rectum was measured.

C#CCN[C@@H]1CCc2ccc(OC(=O)N(C)CC)cc21 [Ladostigil, R(+)-6-(N-methyl, N-ethyl-carbamoyloxy)-N′-propargyl-1-aminoindan]
Blood glucose levels ([1]; 17 mg/kg/day, three weeks): decrease in blood glucose levels in all six animals
Insulin after 3 weeks of treatment ([1]; individual gerbils, 17 mg/kg/day): 132 mU/L and 126.6 mU/L and 124.6 mU/L and 85.3 mU/L and 172 mU/L and 135.3 mU/L
Glucose after 3 weeks of treatment ([1]; individual gerbils, 17 mg/kg/day by gavage, 17 mg/kg/day): 284 mg/dL and 250 mg/dL and 180 mg/dL and 311 mg/dL and 222 mg/dL and 266 mg/dL
Change in glucose ([1]; individual gerbils, 17 mg/kg/day, after 3 weeks vs before, 17 mg/kg/day): −136 and −23 and −20 and −41 and −65 and −19
No of islets ([1]; individual gerbils, 17 mg/kg/day, after 3 weeks, 17 mg/kg/day): 42 and 117 and 79 (2×) and 99 and 87
Glucose before treatment ([1]; individual gerbils, baseline after one week of high energy diet, group later given 17 mg/kg, 17 mg/kg): 420 mg/dL and 273 mg/dL and 200 mg/dL and 352 mg/dL and 287 mg/dL and 285 mg/dL
Inhibition of ChE activity in plasma or spleen (ChE; ladostigil 10 mg/kg): did not significantly inhibit ChE activity
Inhibition of ChE, plasma (ChE; ladostigil 10 mg/kg): 7.8 ± 2.4%
Inhibition of ChE, spleen (ChE; ladostigil 10 mg/kg): 15.1 ± 3.6%
Inhibition of ChE, plasma (ChE; ladostigil 20 mg/kg): 27.4±5.9%
Inhibition of ChE, spleen (ChE; ladostigil 20 mg/kg): 28.1 ± 1.9 %
Inhibition of ChE in the colon ([2]; 5 or 10 mg/kg): Neither dose of ladostigil caused any significant inhibition
ChE activity colon ([2]; 5 mg/kg orally once daily): 18.5 ± 1.4 μmoles of acetylthiocholine hydrolyzed/min/mg protein
ChE activity spleen ([2]; 5 mg/kg orally once daily): 10.8 ± 0.6 μmoles of acetylthiocholine hydrolyzed/min/mg protein
ChE activity colon ([2]; 10 mg/kg orally once daily): 16.7 ± 1.2 μmoles of acetylthiocholine hydrolyzed/min/mg protein
ChE activity spleen ([2]; 10 mg/kg orally once daily): 10.2 ± 0.7 μmoles of acetylthiocholine hydrolyzed/min/mg protein
Decrease in colon length and signs of hyperemia and inflammation ([3]; 5% DSS, 5 and 10 mg/kg, untreated decrease >30%): significantly less
Reduction of DSS-induced weight loss ([3]; 5% DSS, both doses (5 and 10 mg/kg), untreated loss 15%): ~50%
Diarrhea ([3]; 5% DSS, day 7, both doses (5 and 10 mg/kg)): significantly decreased
Bleeding ([3]; 5% DSS, day 8, 5 mg/kg): significantly decreased
Disease activity index (DAI) ([3]; 5% DSS, days 7 and 8, drug treated groups vs DSS-water, p<0.01): significantly different from that of the group drinking DSS given water
Body weight increase during 8 days ([3]; mice receiving 5 or 10 mg/kg by gavage, no DSS): 2-3%
